Key:
TRKA = biological target: T1, TRKA (Homo sapiens, UniProt P04629); assay: Z′-LYTE kinase activity assay, TRKA; type: biochemical; conditions: ATP 400 uM
T1 construct: purchased life technologies PV3144
Procedure, shortened: (§1)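 Z′-LYTE FRET assay using Tyr 01 peptide substrate (2 μM) in 50 mM HEPES pH 7.5 with 10 mM MgCl2, 1 mM EGTA and 0.01% BRIJ-35. Inhibition was derived from the phosphorylation ratio versus negative control, with IC50 from concentration gradients.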

TRKB = biological target: T2, TRKB (Homo sapiens, UniProt Q16620); assay: Z′-LYTE kinase activity assay, TRKB; type: biochemical; conditions: ATP 25 uM
T2 construct: purchased life technologies PV3616
T2 sequence (Q16620 32-822): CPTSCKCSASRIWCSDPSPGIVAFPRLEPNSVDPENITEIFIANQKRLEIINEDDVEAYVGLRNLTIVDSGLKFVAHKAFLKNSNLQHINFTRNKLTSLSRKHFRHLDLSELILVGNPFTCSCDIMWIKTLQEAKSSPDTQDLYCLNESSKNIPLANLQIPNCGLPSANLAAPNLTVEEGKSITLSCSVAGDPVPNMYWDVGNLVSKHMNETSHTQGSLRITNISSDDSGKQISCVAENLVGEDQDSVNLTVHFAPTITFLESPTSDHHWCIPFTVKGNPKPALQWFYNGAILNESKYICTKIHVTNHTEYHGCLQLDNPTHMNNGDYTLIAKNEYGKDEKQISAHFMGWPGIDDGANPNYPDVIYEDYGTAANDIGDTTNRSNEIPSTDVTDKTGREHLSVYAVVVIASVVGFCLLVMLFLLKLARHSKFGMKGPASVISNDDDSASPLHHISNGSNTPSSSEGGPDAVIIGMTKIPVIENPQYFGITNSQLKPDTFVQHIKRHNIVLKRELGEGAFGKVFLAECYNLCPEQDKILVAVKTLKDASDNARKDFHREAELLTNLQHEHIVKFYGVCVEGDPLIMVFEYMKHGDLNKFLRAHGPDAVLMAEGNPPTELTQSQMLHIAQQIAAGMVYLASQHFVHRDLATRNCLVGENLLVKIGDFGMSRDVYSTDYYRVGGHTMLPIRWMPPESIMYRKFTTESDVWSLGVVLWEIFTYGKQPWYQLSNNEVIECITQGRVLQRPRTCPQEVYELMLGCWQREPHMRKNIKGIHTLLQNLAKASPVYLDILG
Procedure, shortened: as §1

TRKC = biological target: T3, TRKC (Homo sapiens, UniProt Q16288); assay: Z′-LYTE kinase activity assay, TRKC; type: biochemical; conditions: ATP 50 uM
T3 construct: purchased life technologies PV3617
T3 sequence (Q16288 32-839): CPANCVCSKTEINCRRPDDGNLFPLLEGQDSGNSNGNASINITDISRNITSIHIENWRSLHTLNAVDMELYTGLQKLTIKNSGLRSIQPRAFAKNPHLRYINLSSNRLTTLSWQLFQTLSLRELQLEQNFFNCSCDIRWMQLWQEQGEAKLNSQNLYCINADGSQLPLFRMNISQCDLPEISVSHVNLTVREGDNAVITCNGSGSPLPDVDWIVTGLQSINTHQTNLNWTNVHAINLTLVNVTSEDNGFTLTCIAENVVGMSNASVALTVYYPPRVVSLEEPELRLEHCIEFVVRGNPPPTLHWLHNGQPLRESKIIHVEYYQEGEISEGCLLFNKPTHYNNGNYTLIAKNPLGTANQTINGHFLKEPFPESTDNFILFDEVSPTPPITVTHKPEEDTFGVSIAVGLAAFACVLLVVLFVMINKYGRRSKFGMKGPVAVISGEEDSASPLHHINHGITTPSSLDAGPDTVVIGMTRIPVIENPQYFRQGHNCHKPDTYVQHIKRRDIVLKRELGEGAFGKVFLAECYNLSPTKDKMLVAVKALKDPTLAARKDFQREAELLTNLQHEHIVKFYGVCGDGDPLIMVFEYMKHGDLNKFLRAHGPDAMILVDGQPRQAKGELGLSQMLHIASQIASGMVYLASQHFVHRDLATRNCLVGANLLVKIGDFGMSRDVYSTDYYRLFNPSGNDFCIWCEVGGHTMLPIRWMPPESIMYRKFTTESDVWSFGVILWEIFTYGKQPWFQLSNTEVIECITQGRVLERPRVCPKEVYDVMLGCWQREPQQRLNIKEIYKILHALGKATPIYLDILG
Procedure, shortened: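 Recombinant TRK kinase tested in a Z′-LYTE FRET assay with 2 μM Tyr 01 peptide substrate in 50 mM HEPES pH 7.5, 10 mM MgCl2, 1 mM EGTA, 0.01% BRIJ-35. IC50 obtained by curve fitting.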

BaF3-CD74-NTRK1 = biological target: T4, BaF3-CD74-NTRK1 (Homo sapiens, UniProt P04629); assay: Cell proliferation inhibition (CCK-8), BaF3-CD74-NTRK1 stable strain; type: cell-based, mouse; conditions: BaF3-CD74-NTRK1, 72 hours
T4 construct: fused on or other part: P04233 (HLA class II histocompatibility antigen gamma chain)
T4 sequence (P04629 510-796 limits assumed): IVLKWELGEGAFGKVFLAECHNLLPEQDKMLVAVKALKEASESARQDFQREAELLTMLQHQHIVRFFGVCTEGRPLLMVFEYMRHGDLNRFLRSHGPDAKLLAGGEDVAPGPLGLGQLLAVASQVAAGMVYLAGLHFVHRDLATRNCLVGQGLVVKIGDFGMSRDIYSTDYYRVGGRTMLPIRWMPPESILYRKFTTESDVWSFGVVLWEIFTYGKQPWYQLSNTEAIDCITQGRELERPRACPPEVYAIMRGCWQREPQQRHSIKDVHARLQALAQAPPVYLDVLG
Procedure, shortened: (§2)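 Ba/F3 cells stably electroporated with ETV6-NTRK3, CD74-NTRK1 or ETV6-NTRK2, selected with G418 and grown without IL3, then cloned by limiting dilution.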

BaF3-ETV6-NTRK2 = biological target: T5, BaF3-ETV6-NTRK2 (Homo sapiens, UniProt Q16620); assay: Cell proliferation inhibition (CCK-8), BaF3-ETV6-NTRK2 stable strain; type: cell-based, mouse; conditions: BaF3-ETV6-NTRK2, 72 hours
T5 construct: fused on or other part: P41212 (Transcription factor ETV6)
T5 sequence (Q16620 538-822 limits assumed): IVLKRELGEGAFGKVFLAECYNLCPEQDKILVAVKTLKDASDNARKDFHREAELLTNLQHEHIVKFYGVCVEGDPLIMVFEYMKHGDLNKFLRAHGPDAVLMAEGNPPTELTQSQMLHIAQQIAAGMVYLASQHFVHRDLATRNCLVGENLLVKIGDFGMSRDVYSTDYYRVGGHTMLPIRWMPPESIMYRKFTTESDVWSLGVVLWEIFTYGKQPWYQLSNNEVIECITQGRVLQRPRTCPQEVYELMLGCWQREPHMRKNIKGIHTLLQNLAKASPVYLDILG
Procedure, shortened: as §2

BaF3-ETV6-NTRK3 = biological target: T6, BaF3-ETV6-NTRK3 (Homo sapiens, UniProt Q16288); assay: Cell proliferation inhibition (CCK-8), BaF3-ETV6-NTRK3 stable strain; type: cell-based, mouse; conditions: BaF3-ETV6-NTRK3, 72 hours
T6 construct: fused on or other part: P41212 (Transcription factor ETV6)
T6 sequence (Q16288 whole entry, the tested form may be a part): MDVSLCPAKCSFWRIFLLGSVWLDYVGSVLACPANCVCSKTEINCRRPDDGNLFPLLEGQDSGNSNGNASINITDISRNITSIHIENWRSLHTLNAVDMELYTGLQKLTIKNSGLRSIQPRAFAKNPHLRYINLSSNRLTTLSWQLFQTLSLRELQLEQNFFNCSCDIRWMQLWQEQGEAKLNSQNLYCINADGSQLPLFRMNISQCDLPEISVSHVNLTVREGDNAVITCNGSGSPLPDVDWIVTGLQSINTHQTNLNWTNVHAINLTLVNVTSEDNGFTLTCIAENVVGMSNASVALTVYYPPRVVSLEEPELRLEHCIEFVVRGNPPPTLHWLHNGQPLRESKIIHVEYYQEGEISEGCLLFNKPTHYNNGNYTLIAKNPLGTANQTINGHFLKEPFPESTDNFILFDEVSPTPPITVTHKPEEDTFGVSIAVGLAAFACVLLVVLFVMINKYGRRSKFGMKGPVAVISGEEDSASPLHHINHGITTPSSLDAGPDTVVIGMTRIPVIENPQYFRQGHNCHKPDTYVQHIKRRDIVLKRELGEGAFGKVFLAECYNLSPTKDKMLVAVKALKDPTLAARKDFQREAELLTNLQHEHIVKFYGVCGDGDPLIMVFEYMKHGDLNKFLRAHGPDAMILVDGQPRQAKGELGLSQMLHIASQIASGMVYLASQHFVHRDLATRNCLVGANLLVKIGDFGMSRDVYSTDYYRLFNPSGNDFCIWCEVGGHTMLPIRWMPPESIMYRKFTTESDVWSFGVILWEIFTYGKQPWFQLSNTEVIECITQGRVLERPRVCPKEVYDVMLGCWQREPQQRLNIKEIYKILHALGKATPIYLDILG
Procedure, shortened: as §2

[1] = Rat hepatocyte stability experiment; type: in vitro ADME
Protocol: In William medium E, dilute the 37° C. rat hepatocyte suspension to an appropriate density (viable cell density=2×10^6 cells/mL). In addition, a 2× quantification solution (the concentration of the test compound was 2 μM) was additionally prepared in William's medium E. The hepatocyte solution and 2× quantification solution were preheated in a water bath of 37° C. 40 µL of the preheated hepatocyte solution (2×10^6 cells/mL) was added into the designated wells for 5, 15, 30, 60, and 120 min, and add 40 µL of the preheated 2× quantification solution and start timing. An assay plate was placed in a 37° C., 5% CO2 incubator with shaking at 110 rpm. At 5, 15, 30, 60, and 120 minutes, 240 μL of ACN containing IS was added to each well. The plate was then sealed and stored in a −35° C. freezer. After collecting at all time points, the plate was shaken for 2 minutes and then centrifuging was performed for 15 minutes at 6000 rmp. 100 μL of supernatant from each well was transferred to a 96-well sample plate containing 100 μL of water for LC/MS analysis, determination of compound concentrations, calculation of rate constants and half-lives.

T1 sequence (P04629 440-796 limits assumed): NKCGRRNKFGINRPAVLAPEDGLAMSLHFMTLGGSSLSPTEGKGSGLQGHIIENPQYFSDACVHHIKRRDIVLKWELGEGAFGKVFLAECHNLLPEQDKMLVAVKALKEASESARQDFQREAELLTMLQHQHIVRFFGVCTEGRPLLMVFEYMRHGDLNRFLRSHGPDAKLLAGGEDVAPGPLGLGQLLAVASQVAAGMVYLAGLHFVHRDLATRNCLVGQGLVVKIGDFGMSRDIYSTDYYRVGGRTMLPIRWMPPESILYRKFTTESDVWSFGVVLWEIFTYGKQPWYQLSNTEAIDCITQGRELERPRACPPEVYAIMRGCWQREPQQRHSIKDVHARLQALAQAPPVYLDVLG

SMILES | IC50 (TRKA) [nM] | IC50 (TRKB) [nM] | IC50 (TRKC) [nM] | IC50 (BaF3-CD74-NTRK1) [nM] | IC50 (BaF3-ETV6-NTRK2) [nM] | IC50 (BaF3-ETV6-NTRK3) [nM] | Residual percentage (%) 0 min ([1]; rat hepatocytes, 0 min, average value) [%] | Residual percentage (%) 5 min ([1]; rat hepatocytes, 5 min, average value) [%] | Residual percentage (%) 15 min ([1]; rat hepatocytes, 15 min, average value) [%] | Residual percentage (%) 30 min ([1]; rat hepatocytes, 30 min, average value) | Residual percentage (%) 60 min ([1]; rat hepatocytes, 60 min, average value) | Residual percentage (%) 120 min ([1]; rat hepatocytes, 120 min, average value) | half-life at 1 μM ([1]; rat, rat hepatocytes (suspension)) [min]
O=C(Nc1ccc2[nH]nc(/C=C/c3ccccn3)c2c1)c1cc(F)cc(F)c1 [DYX-164, (E)-3,5-difluoro-N-(3-(2-(pyridin-2-yl)vinyl)-1H-indazol-5-yl)benzamide] | 196 | 741 | 226 | 1930 | 2580 | 2240 |  |  |  |  |  |  | 
Fc1ccc(F)c([C@H]2CCCN2c2ccc3[nH]nc(/C=C/c4ccccn4)c3c2)c1 [DYX-170, (R,E)-5-(2-(2,5-difluorophenyl)pyrrolidin-1-yl)-3-(2-(pyridin-2-yl)vinyl)-1H-indazole] | 8.1 | 18.4 | 1.9 | 99.4 | 242 | 167 |  |  |  |  |  |  | 
O=C(Nc1cc(F)cc(F)c1)c1ccc2[nH]nc(/C=C/c3ccccn3)c2c1 [DYX-171, (E)-N-(3,5-difluorophenyl)-3-(2-(pyridin-2-yl)vinyl)-1H-indazole-5-carboxamide] | 577 | > 1000 | 532 | 8040 | 2730 | 2640 |  |  |  |  |  |  | 
O=C(Nc1cc(F)cc(F)c1)Nc1ccc2[nH]nc(/C=C/c3ccccn3)c2c1 [DYX-174, (E)-1-(3,5-difluorophenyl)-3-(3-(2-(pyridin-2-yl)vinyl)-1H-indazol-5-yl)urea] | 46.8 | 242 | 94.1 | 1180 | 1910 | 623 |  |  |  |  |  |  | 
Fc1cc(F)cc(OCc2ccc3[nH]nc(/C=C/c4ccccn4)c3c2)c1 [DYX-176] | 7.1 | 21.4 | 6.5 | 627 | 2520 | 1040 |  |  |  |  |  |  | 
Fc1cc(F)cc(CCc2ccc3[nH]nc(/C=C/c4ccccn4)c3c2)c1 [DYX-180, (E)-5-(3,5-difluorophenethyl)-3-(2-(pyridin-2-yl)vinyl)-1H-indazole] | 3.9 | 9.9 | 4.7 | 498 | 694 | 415 |  |  |  |  |  |  | 
Fc1cc(F)cc(CNc2ccc3[nH]nc(/C=C/c4ccccn4)c3c2)c1 [DYX-185, (E)-N-(3,5-difluorobenzyl)-3-(2-(pyridin-2-yl)vinyl)-1H-indazol-5-amine] | 1.7 | 10 | 1.9 | 32.6 | 43.9 | 23.7 |  |  |  |  |  |  | 
CN(Cc1cc(F)cc(F)c1)c1ccc2[nH]nc(/C=C/c3ccccn3)c2c1 [DYX-187, (E)-N-(3,5-difluorobenzyl)-N-methyl-3-(2-(pyridin-2-yl)vinyl)-1H-indazol-5-amine] | 18.7 | 20.3 | 6.2 | 172 | 625 | 278 |  |  |  |  |  |  | 
Fc1cc(F)cc(NCc2ccc3[nH]nc(/C=C/c4ccccn4)c3c2)c1 [DYX-191, (E)-3,5-difluoro-N-((3-(2-(pyridin-2-yl)vinyl)-1H-indazol-5-yl)methyl)aniline] | 9.1 | 37.1 | 16.6 | 264 | 667 | 503 |  |  |  |  |  |  | 
CN(Cc1ccc2[nH]nc(/C=C/c3ccccn3)c2c1)c1cc(F)cc(F)c1 [DYX-193, (E)-3,5-difluoro-N-methyl-N-((3-(2-(pyridin-2-yl)vinyl)-1H-indazol-5-yl)methyl)aniline] | 45.4 | 120 | 33.2 | 136 | 316 | 83 |  |  |  |  |  |  | 
Fc1cc(F)cc(Cc2ccc3[nH]nc(/C=C/c4ccncc4)c3c2)c1 [DYX-215, (E)-5-(3,5-difluorobenzyl)-3-(2-(pyridin-4-yl)vinyl)-1H-indazole] | 3.3 | 22.4 | 20.9 | 147 | 170 | 110 |  |  |  |  |  |  | 
Fc1ccc(F)c(CNc2ccc3[nH]nc(/C=C/c4ccccn4)c3c2)c1 [DYX-216A, (E)-N-(2,5-difluorobenzyl)-3-(2-(pyridin-2-yl)vinyl)-1H-indazol-5-amine] | 1.1 | 6.5 | 1.3 | 12.6 | 8.7 | 7.2 |  |  |  |  |  |  | 
C[C@@H](Nc1ccc2[nH]nc(/C=C/C(=O)N3CC[C@H](O)C3)c2c1)c1cc(F)cc(F)c1 [DYX-303, (E)-3-(5-(((R)-1-(3,5-difluorophenyl)ethyl)amino)-1H-indazol-3-yl)-1-((S)-3-hydroxylpyrrolidin-1-yl)prop-2-en-1-one] | 3 | 4.8 | 0.8 | 10.1 | 20 | 7.1 |  |  |  |  |  |  | 
Fc1cccc(CNc2ccc3[nH]nc(/C=C/c4ccccn4)c3c2)c1 [DYX-305, (E)-N-(3-fluorobenzyl)-3-(2-(pyridin-2-yl)vinyl)-1H-indazol-5-amine] | 1.8 | 9.5 | 1.3 | 28.2 | 51.3 | 22.9 |  |  |  |  |  |  | 
C[C@]12CC[C@H]3[C@@H](CCC4=CC(=O)CC[C@@]43C)[C@@H]1CC[C@@H]2O [Testosterone, reference compound] |  |  |  |  |  |  | 100.00 | 21.21 | 5.78 | BQL | BQL | BQL | 2.23

Reference: patent US20220281821A1, “INDAZOLE COMPOUNDS AND THEIR PHARMACEUTICAL COMPOSITIONS” (Jinan University, priority 2019, published 2022)
